IC50 data for two molecules are collected here from US10328084B2, “Pyrrolobenzodiazepines and targeted conjugates” (priority 2011, dated 2019).

Common to all, as to type: cell-based
One test relates to 786-O. In words: in vitro cytotoxic activity, resazurin reduction assay, 786-O. Conditions: Homo sapiens, 786-0, 48 h, read-out: IC50 in pM following 48 hours treatment, 786-O. How it is done: (§1) The in vitro cytotoxic activity of the selected antibody drug conjugate was assessed using a resazurin (Sigma, St. Louis, Mo., USA) reduction assay (reference: Doronina et al., Nature Biotechnology, 2003, 21, 778-784). The antibody drug conjugate was prepared as described above.
(§2) For the 96-hour assay, cells cultured in log-phase growth were seeded for 24 h in 96-well plates containing 150 μL RPMI 1640 supplemented with 20% FBS. Serial dilutions of ADC in cell culture media were prepared at 4× working concentration; 50 μL of each dilution was added to the 96-well plates. Following addition of ADC, the cells were incubated with test articles for 4 days at 37° C. Resazurin was then added to each well to achieve a 50 μM final concentration, and the plates were incubated for an additional 4 hours at 37° C. The plates were then read for the extent of dye reduction on a Fusion HT plate reader (Packard Instruments, Meridien, Conn., USA) with excitation and emission wavelengths of 530 and 590 nm, respectively. The IC50 value, determined in triplicate, is defined here as the concentration that results in a 50% reduction in cell growth relative to untreated controls.
(§3) Referring to the table below, the in vitro cytotoxicity of the ADC using the 96 hour assay is shown. […]

A further test relates to HL60. The test can be described thus: in vitro cytotoxic activity, HL60. The settings on record: Homo sapiens, HL-60; HL60, 48 hours treatment, free PBD dimer; read-out: IC50 in pM following 48 hours treatment, HL60. As to the method:
as §1
as §2, with “For the 96-hour assay, cells cultured in log-phase growth were seeded for 24 h in 96-well plates containing 150 μL RPMI 1640 supplemented with 20% FBS.” left out, “Following addition of ADC, the cells were incubated with test articles for 4 days at 37° C.” left out

Another test relates to HEL9217. The test can be described thus: in vitro cytotoxic activity, HEL9217. Conditions: Homo sapiens, HEL 92.1.7; HEL9217, 48 hours treatment, free PBD dimer; read-out: IC50 in pM following 48 hours treatment, HEL9217. How it is done: as §1
as §2, with “For the 96-hour assay, cells cultured in log-phase growth were seeded for 24 h in 96-well plates containing 150 μL RPMI 1640 supplemented with 20% FBS.” left out, “Following addition of ADC, the cells were incubated with test articles for 4 days at 37° C.” left out

A further test has as its system Caki-1. In words: in vitro cytotoxic activity, resazurin reduction assay, Caki-1. The settings on record: Homo sapiens, CAKI-1, 48 h, read-out: IC50 in pM following 48 hours treatment, Caki-1. As to the method:
as §1, §2, §3
For orientation: Resazurin is reduced to fluorescent resorufin, in cell work by metabolically active cells.

The IC50 is the concentration that inhibits the measured activity by half. As for `COc1cc2c(cc1OCCCCCOc1cc3c(cc1OC)C(=O)N1C=C(c4ccc(OCCCN(C)C)cc4)C[C@H]1C=N3)N=C[C@@H]1CC(c3ccc(N)cc3)=CN1C2=O` [compound 17, (S)-2-(4-aminophenyl)-8-((5-(((S)-2-(4-(3-(dimethylamino)propoxy)phenyl)-7-methoxy-5-oxo-5,11a-dihydro-1H-benzo[e]pyrrolo[1,2-a][1,4]diazepin-8-yl)oxy)pentyl)oxy)-7-methoxy-1H-benzo[e]pyrrolo[1,2-a][1,4]diazepin-5(11 aH)-one], the half-inhibitory concentration (IC50) with 786-O turned out to be 7 pM; in the test with HL60 it was 3 pM; with HEL9217, 2 pM; in the test on Caki-1 it was 2 pM.
For `COCCOCCOCCOCCOc1ccc(C2=CN3C(=O)c4cc(OC)c(OCCCCCOc5cc6c(cc5OC)C(=O)N5C=C(c7ccc(N)cc7)C[C@@H]5C=N6)cc4N=C[C@H]3C2)cc1` [compound 23, (R)-2-(4-(2,5,8,11-tetraoxatridecan-13-yloxy)phenyl)-8-((5-(((R)-2-(4-aminophenyl)-7-methoxy-5-oxo-5,11a-dihydro-1H-benzo[e]pyrrolo[1,2-a][1,4]diazepin-8-yl)oxy)pentyl)oxy)-7-methoxy-1H-benzo[e]pyrrolo[1,2-a][1,4]diazepin-5(11aH)-one], the half-maximal inhibitory concentration (IC50) in the test with 786-O amounted to 100 pM; in the test on HL60, 40 pM; in the test on HEL9217 it was 100 pM; in the test on Caki-1, 100 pM.
